Experimental data published in BindingDB's records for doi:10.1016/j.bmcl.2006.02.063 (The University of Kansas, 2006).

Test: Inhibition of Her2 in SKBr3 cells by ELISA

Compound	IC50
COc1cc(C2CC(c3ccccc3O)N=N2)ccc1O (stereo not drawn) [6-[5-(4-hydroxy-3-methoxyphenyl)-3-pyrazolidinylidene]-1-cyclohexa-2,4-dienone]	18 µM
CC1(C)CC(=O)C2C(=Nc3ccccc3NC2c2cccc(O)c2O)C1 (stereo not drawn) [3-(1-hydroxy-3,3-dimethyl-3,4,10,11-tetrahydro-2H-dibenzo[b,e][1,4]diazepin-11-yl)-benzene-1,2-diol]	61 µM
O=S(=O)(Nc1ccc(Cl)cc1O)c1ccccc1	31 µM
